From ChEMBL document CHEMBL3585240, “Synthesis and biological evaluation of caracasine acid derivatives” (Bioorg Med Chem, 2015) come the findings set out here.

Usually IC50 stands for the concentration that gives 50% inhibition.

Calls of active or inactive are those of the source. No cut-off for these calls is given here.

Test [1] has as its system PC-3. Put plainly: Selectivity index, ratio of IC50 for human skin fibroblasts to IC50 for human PC3 cells.
The next test relates to Leishmania mexicana. Put plainly: Antileishmanial activity against promastigote stage of Leishmania mexicana Bel21 assessed as growth inhibition after 48 hrs by MTT assay. Type of test: functional, organism-based. Particulars: Bel21, 48 h. On the technique in general: Formazan colour is commonly taken as a measure of viable cells.
Test [2] deals with MCF7. Nature of the test: Selectivity index, ratio of IC50 for human skin fibroblasts to IC50 for human MCF7 cells.
Test [3] can be described thus: Cytotoxicity against human skin fibroblasts assessed as growth inhibition after 72 hrs by MTT assay. The conditions noted are these: Skin fibroblast.
Test [4] deals with PC-3. Nature of the test: Cytotoxicity against human PC3 cells assessed as growth inhibition after 72 hrs by MTT assay. Type of test: functional, cell-based. Particulars: PC-3, 72 h.
For the next test, the system named is Escherichia coli. Nature of the test: Antibacterial activity against Escherichia coli ATCC 35218 assessed as growth inhibition at 2 mg/ml after 24 hrs by disc agar diffusion method. Type of test: functional. The conditions noted are these: for zone of inhibition at 2000 µg/mL: ATCC 35218, 24 h, read-out: DIZ. A general note: Agar diffusion results depend on both activity and mobility in agar.

A further test concerns Bacillus cereus. Put plainly: Antibacterial activity against Bacillus cereus ATCC 14579 assessed as growth inhibition at 2 mg/ml after 24 hrs by disc agar diffusion method. The format is functional. Particulars: for zone of inhibition at 2000 µg/mL: ATCC 14579, 24 h, read-out: DIZ.
Test [5] in a line: Selectivity index, ratio of IC50 for human skin fibroblasts to IC50 for promastigote stage of Leishmania mexicana Bel21.
Test [6] relates to MCF7. Nature of the test: Cytotoxicity against human MCF7 cells assessed as growth inhibition after 72 hrs by MTT assay. The format is functional, cell-based. The conditions noted are these: MCF7, 72 h.
The next test relates to Pseudomonas aeruginosa. Nature of the test: Antibacterial activity against Pseudomonas aeruginosa ATCC 27853 assessed as growth inhibition at 2 mg/ml after 24 hrs by disc agar diffusion method. The format is functional. Particulars: for zone of inhibition at 2000 µg/mL: ATCC 27853, 24 h, read-out: DIZ.
In a further test the test system is Staphylococcus aureus. Put plainly: Antibacterial activity against Staphylococcus aureus ATCC 25923 assessed as growth inhibition at 2 mg/ml after 24 hrs by disc agar diffusion method. The format is functional. Particulars: for zone of inhibition at 2000 µg/mL: ATCC 25923, 24 h, read-out: DIZ.
Test [7] can be described thus: Selectivity index, ratio of IC50 for human skin fibroblasts to IC50 for epimastigote stage of Trypanosoma cruzi CL Brener.
For a further test, the system named is Trypanosoma cruzi. Put plainly: Antitrypanosomal activity against epimastigote stage of Trypanosoma cruzi CL Brener assessed as growth inhibition after 5 days by MTT assay. The format is functional. Particulars: 120 h.

Regarding `C=C1C(O)[C@@]23CC[C@H](C(=C)C)[C@@](C)(CCC(=O)O)[C@@H]2CC[C@H]1C3` (stereo partly drawn), the figures for the “Ratio IC50” value (in the test with PC-3 [1]; in the test with MCF7 [2]; in test [5]) were 1.5, 2.4 and less than 6.9, respectively. Also, the IC50 was more than 30 µM in the test on Leishmania mexicana, 207 µM in [3], 137 µM in the test on PC-3 [4] and 86.8 µM in the test on MCF7 [6]. Besides, the zone of inhibition at 2000 µg/mL stood at 12 mm with Escherichia coli, 15 mm with Bacillus cereus, 20 mm with Pseudomonas aeruginosa and 12 mm with Staphylococcus aureus.
Take `C=C1C(=O)[C@@]23CC[C@H](C(=C)C)[C@@](C)(CCC(=O)OCC)[C@@H]2CC[C@H]1C3`: the “Ratio IC50” value is reported as 0.8 in the test with PC-3 [1], 1.4 in test [7], 0.7 in the test on MCF7 [2] and 2.3 in test [5]. The IC50 in the test on Leishmania mexicana was 1.6 µM; in test [3], 3.7 µM; with PC-3 [4], 4.4 µM; with MCF7 [6] it was 5.1 µM; in the test on Trypanosoma cruzi it was 2.7 µM. The “growth inhibition (GI)” value in the test with Escherichia coli, in the test on Bacillus cereus, with Pseudomonas aeruginosa and in the test on Staphylococcus aureus was “inactive” in each case.
Consider `C=C1C(=O)[C@@]23CC[C@H](C(=C)C)[C@@](C)(CCC(=O)O)[C@@H]2CC[C@H]1C3`, for which the “Ratio IC50” value amounted to 5 in the test with PC-3 [1], 1.8 in [7], 2.5 in the test on MCF7 [2] and 1.3 in [5]. The IC50 with Leishmania mexicana was 30.8 µM; in [3], 39.7 µM; in the test with PC-3 [4], 7.9 µM; in the test on MCF7 [6] it was 15.8 µM; in the test with Trypanosoma cruzi, 22.3 µM. Also, the zone of inhibition at 2000 µg/mL in the test on Escherichia coli is 22 mm; in the test with Bacillus cereus, 22 mm; in the test on Pseudomonas aeruginosa, 30 mm; in the test on Staphylococcus aureus it was 24 mm.
As for `C=C(C)[C@H]1CC[C@@]23C[C@H](CC[C@H]2[C@]1(C)CCC(=O)OC)C(CC(C#N)P(=O)(OCC)OCC)C3=O` (stereo partly drawn), the “growth inhibition (GI)” value with Escherichia coli, in the test with Bacillus cereus, in the test with Pseudomonas aeruginosa and in the test on Staphylococcus aureus was “inactive” in each case.
In the case of `C=C(C)[C@H]1CC[C@@]23C[C@H](CC[C@H]2[C@]1(C)CCC(=O)O)C(C)C3=O` (stereo partly drawn), the values for the IC50 (in the test on Leishmania mexicana; in test [3]; in the test on MCF7 [6]) were more than 47 µM, more than 157 µM and 110 µM, respectively. Also, the “Ratio IC50” value with MCF7 [2] was more than 1.4. Also, the “growth inhibition (GI)” value in the test with Escherichia coli and in the test on Staphylococcus aureus was “inactive” in each case. Besides, the zone of inhibition at 2000 µg/mL in the test with Bacillus cereus worked out at 20 mm; in the test on Pseudomonas aeruginosa, 18 mm.
Turning to `C=C1C(=O)[C@@]23CC[C@H](C4(C)CO4)[C@@](C)(CCC(=O)O)[C@@H]2CC[C@H]1C3` (stereo partly drawn), the results for the “Ratio IC50” value in the test on PC-3 [1] and in the test with MCF7 [2] were 3.9 and 1.1, respectively. Besides, the figures for the IC50 (in [3]; with PC-3 [4]; with MCF7 [6]) were 24.7 µM, 6.4 µM and 22.6 µM, respectively. The zone of inhibition at 2000 µg/mL turned out to be 18 mm in the test on Escherichia coli, 20 mm in the test on Bacillus cereus, 18 mm in the test with Pseudomonas aeruginosa and 25 mm with Staphylococcus aureus.
Take `C=C1C(=O)[C@@]23CC[C@H](C(=C)C)[C@@](C)(CCC(=O)OCc4ccccc4)[C@@H]2CC[C@H]1C3`: the “Ratio IC50” value is listed as 0.6 in the test on PC-3 [1], 0.8 in test [7], 0.8 with MCF7 [2] and 3.1 in [5]. The IC50 amounted to 1 µM in the test with Leishmania mexicana; 3.1 µM in test [3]; 5.5 µM with PC-3 [4]; 3.7 µM in the test on MCF7 [6]; 4.1 µM in the test with Trypanosoma cruzi. Further, the zone of inhibition at 2000 µg/mL with Escherichia coli is 22 mm; in the test on Bacillus cereus it was 24 mm; in the test on Pseudomonas aeruginosa it was 15 mm; with Staphylococcus aureus, 15 mm.
Turning to `C=C(C)[C@H]1CC[C@@]23C[C@H](CC[C@H]2[C@]1(C)CCC(=O)O)C(COCC)C3=O` (stereo partly drawn), the zone of inhibition at 2000 µg/mL with Escherichia coli is 14 mm; in the test on Bacillus cereus it was 10 mm; with Pseudomonas aeruginosa, 15 mm; in the test on Staphylococcus aureus, 12 mm.
On to `C=C1C(=O)[C@@]23CC[C@H](C(=C)C)[C@@](C)(CCC(=O)OC(C)C)[C@@H]2CC[C@H]1C3`, for which the “Ratio IC50” value with PC-3 [1] is given as 1.4; in [7], 1.8; in the test with MCF7 [2], 1.4; in [5] it was 5. Further, the IC50 stood at 1.5 µM in the test with Leishmania mexicana; 7.5 µM in [3]; 5.4 µM in the test on PC-3 [4]; 5.4 µM in the test on MCF7 [6]; 4.1 µM in the test on Trypanosoma cruzi. In addition, the “growth inhibition (GI)” value in the test with Escherichia coli and with Bacillus cereus was “inactive” each time. Besides, the zone of inhibition at 2000 µg/mL in the test with Pseudomonas aeruginosa and with Staphylococcus aureus was 15 mm throughout.
With `C=C1C(=O)[C@@]23CC[C@H](C(=C)C)[C@@](C)(CCC(=O)NC4CCCCC4)[C@@H]2CC[C@H]1C3`, the “Ratio IC50” value in the test on PC-3 [1] turned out to be 3.1; in test [7], 4.3; with MCF7 [2] it was 1.2; in test [5], 6. The IC50 was found to be 2 µM in the test on Leishmania mexicana; 12 µM in test [3]; 3.9 µM in the test with PC-3 [4]; 10 µM in the test on MCF7 [6]; 2.8 µM with Trypanosoma cruzi. Also, the zone of inhibition at 2000 µg/mL in the test on Escherichia coli is 16 mm; in the test on Bacillus cereus, 15 mm; with Pseudomonas aeruginosa, 12 mm; with Staphylococcus aureus, 15 mm.
Take `C=C(C)[C@H]1CC[C@@]23C[C@H](CC[C@H]2[C@]1(C)CCC(=O)OC)C(COC)C3=O` (stereo partly drawn): the zone of inhibition at 2000 µg/mL turned out to be 15 mm in the test with Escherichia coli, 12 mm in the test with Bacillus cereus, 15 mm in the test with Pseudomonas aeruginosa and 13 mm in the test with Staphylococcus aureus.
In the case of `C=C(C)[C@H]1CC[C@@]23C[C@H](CC[C@H]2[C@]1(C)CCC(=O)O)C(CSCc1ccccc1)C3=O` (stereo partly drawn), the IC50 worked out at 22.1 µM in the test on Leishmania mexicana, 42.7 µM in [3] and 39.3 µM with Trypanosoma cruzi. Besides, the “Ratio IC50” value is recorded as 1.1 in test [7] and 1.9 in test [5]. The zone of inhibition at 2000 µg/mL with Escherichia coli turned out to be 25 mm; in the test on Bacillus cereus, 20 mm; in the test on Pseudomonas aeruginosa, 15 mm; with Staphylococcus aureus, 22 mm.
Consider `C=C1C(=O)[C@@]23CC[C@H](C(=C)C)[C@@](C)(CCC(=O)OCCC)[C@@H]2CC[C@H]1C3`, for which the “Ratio IC50” value with PC-3 [1] was 1.5; in [7] it was 2; in the test on MCF7 [2], 0.9; in [5] it was 4.1. Also, the 50% inhibitory concentration (IC50) is 1.5 µM in the test on Leishmania mexicana; 6.2 µM in test [3]; 4.2 µM with PC-3 [4]; 6.6 µM in the test on MCF7 [6]; 3.1 µM in the test on Trypanosoma cruzi. Moreover, the “growth inhibition (GI)” value in the test on Escherichia coli and with Pseudomonas aeruginosa was “inactive” in each case. For the same molecule, the zone of inhibition at 2000 µg/mL was 20 mm with Bacillus cereus and 12 mm with Staphylococcus aureus.
For `C=C1C(=O)[C@@]23CC[C@H](C(=C)C)[C@@](C)(CCC(=O)OC4CCCCC4)[C@@H]2CC[C@H]1C3`, the “Ratio IC50” value is listed as 2.1 with PC-3 [1], less than 0.7 in [7], 1.9 in the test on MCF7 [2] and less than 3.3 in test [5]. Besides, the IC50 in the test on Leishmania mexicana is 1.2 µM; in [3], less than 3.9 µM; in the test on PC-3 [4], 1.9 µM; in the test on MCF7 [6], 2.1 µM; in the test with Trypanosoma cruzi it was 5.5 µM. In addition, the zone of inhibition at 2000 µg/mL in the test with Escherichia coli turned out to be 28 mm; in the test with Bacillus cereus, 12 mm; in the test with Pseudomonas aeruginosa, 30 mm; with Staphylococcus aureus it was 30 mm.
Take `C=C1C(=O)[C@@]23CC[C@H](C(=C)C)[C@@](C)(CCC(=O)OCCCC)[C@@H]2CC[C@H]1C3`: the “Ratio IC50” value in the test with PC-3 [1] is given as 1.5; in [7], 1.7; in the test on MCF7 [2], 1.3; in test [5], 5.8. Besides, the IC50 was 1.2 µM in the test with Leishmania mexicana; 7 µM in test [3]; 4.7 µM with PC-3 [4]; 5.6 µM in the test on MCF7 [6]; 4.2 µM in the test with Trypanosoma cruzi. For the same molecule, the “growth inhibition (GI)” value in the test on Escherichia coli, in the test on Bacillus cereus, with Pseudomonas aeruginosa and in the test on Staphylococcus aureus was “inactive” in each case.
With `C=C(C)[C@H]1CC[C@@]23C[C@H](CC[C@H]2[C@]1(C)CCC(=O)O)C(CC#N)C3=O` (stereo partly drawn), the IC50 with Leishmania mexicana is more than 44 µM; in test [3], 51.9 µM; with PC-3 [4], more than 138 µM; in the test on MCF7 [6], 144 µM. In addition, the results for the “Ratio IC50” value (in the test on MCF7 [2]; in [5]) were 0.5 and less than 1.2, respectively. Moreover, the “growth inhibition (GI)” value in the test with Escherichia coli, in the test on Bacillus cereus, in the test with Pseudomonas aeruginosa and in the test with Staphylococcus aureus was “inactive” in each case.
